# From the supplement of paper PMC10307832
# Tests used:
# Assay in all cases: relative viability (nuclei count vs DMSO), 5 days (fraction); higher = more cells survive
# [1] = compound: CC1CC(=O)N(C2=CN=C(N=C2N1C3CCCC3)NC4=C(C=C(C=C4)C(=O)NC5CCN(CC5)C)OC)C [NPK76-II-72-1] + CC(=O)c1c(C)c2cnc(Nc3ccc(N4CCNCC4)cn3)nc2n(C2CCCC2)c1=O [Palbociclib] (partner 0.5 µM)
# How it was run: (§1)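 Lung cancer cell lines were seeded in 1536-well plates and dosed by pin tool the next day, with either a single drug or a fixed anchor-drug dose combined with five library-drug doses (not always all listed) spaced in √10 steps. Five days later, one step fixed the cells and stained their nuclei (final 0.05% Triton X-100, 1% formaldehyde, 1 ug/ml Hoechst), and nuclei were counted on 4× images. Relative viability is the nuclei count in treated wells divided by the count in vehicle wells, and each value is the median of duplicate plates.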
# [2] = compound: CC1CC(=O)N(C2=CN=C(N=C2N1C3CCCC3)NC4=C(C=C(C=C4)C(=O)NC5CCN(CC5)C)OC)C [NPK76-II-72-1] + CS(=O)(=O)CCNCc1ccc(-c2ccc3ncnc(Nc4ccc(OCc5cccc(F)c5)c(Cl)c4)c3c2)o1 [Lapatinib] (partner 2 µM)
# How it was run: as §1
# [3] = compound: CC[C@@H]1C(=O)N(C)c2cnc(Nc3ccc(C(=O)NC4CCN(C)CC4)cc3OC)nc2N1C1CCCC1 [BI-2536] + CCNC(=O)c1noc(-c2cc(C(C)C)c(O)cc2O)c1-c1ccc(CN2CCOCC2)cc1 [Luminespib] (partner 0.01 µM)
# How it was run: as §1
# [4] = compound: CC[C@@H]1C(=O)N(C)c2cnc(Nc3ccc(C(=O)NC4CCN(C)CC4)cc3OC)nc2N1C1CCCC1 [BI-2536] + Cc1cc(Nc2cc(N3CCN(C)CC3)nc(Sc3ccc(NC(=O)C4CC4)cc3)n2)n[nH]1 [Tozasertib] (partner 0.1 µM)
# How it was run: as §1
cell line,measurement,setting,value
UMC-11,relative viability,[1]; first compound 0.01 µM,0.301
same,relative viability,[1]; first compound 0.03162 µM,0.326
same,relative viability,[1]; first compound 0.1 µM,0.265
same,relative viability,[1]; first compound 0.3162 µM,0.355
same,relative viability,[1]; first compound 1 µM,0.355
same,relative viability,[2]; first compound 0.01 µM,0.923
same,relative viability,[2]; first compound 0.03162 µM,1.07
same,relative viability,[2]; first compound 0.1 µM,1.08
same,relative viability,[2]; first compound 0.3162 µM,0.782
same,relative viability,[2]; first compound 1 µM,1.05
same,relative viability,[3]; first compound 0.01 µM,0.925
same,relative viability,[3]; first compound 0.03162 µM,0.725
same,relative viability,[3]; first compound 0.1 µM,0.232
same,relative viability,[3]; first compound 0.3162 µM,0.188
same,relative viability,[3]; first compound 1 µM,0.168
same,relative viability,[4]; first compound 0.01 µM,0.184
same,relative viability,[4]; first compound 0.03162 µM,0.203
same,relative viability,[4]; first compound 0.1 µM,0.198
same,relative viability,[4]; first compound 0.3162 µM,0.31
same,relative viability,[4]; first compound 1 µM,0.361
